For one assay, the system named is A. galli (intestinal roundworm of chicken) larval stage 3; O. dentatum (nodular worm of swine) larval stages 3 and 4. Put plainly: Activity against Ascaridia galli and Oesophagostomum dentatum larvae in vitro (minimum effective concentration). It counts as cell-based. To be noted: in vitro; one or more of A. galli L3, O. dentatum L3, L4; threshold 1 μM; read-out: MEC (minimum effective concentration) against one or more of the tested nematodes.
For `O=C(CCN1CCN(c2ccc(Cl)cc2)CC1)N1CCC(Oc2ccc([N+](=O)[O-])c(C(F)(F)F)c2)CC1` [Example 433], the minimal effective concentration is less than 1 µM. With `Cn1nnc(-c2ccc(NC3CCN(C(=O)CCN4CCN(c5ccc(Cl)cc5)CC4)CC3)cc2)n1` [Example 445], the minimal effective concentration is less than 1 µM.

For `CC(C)COc1cc(NC2CCN(C(=O)CCN3CCN(c4ccc(C(F)(F)F)cc4)CC3)CC2)ccc1[N+](=O)[O-]` [Example 459], the minimal effective concentration was less than 1 µM. On the same count and under the same terms, the result for `COc1ccc(C2CCN(CCC(=O)N3CCC(Oc4ccc([N+](=O)[O-])c(OC)c4)CC3)CC2)cc1` [Example 484] reads less than 1 µM; that for `CCCc1ccc(C2CCN(CCC(=O)N3CCC(Oc4ccc([N+](=O)[O-])c(OC)c4)CC3)CC2)cc1` [Example 489], less than 1 µM.

Turning to `CCOc1cc(OC2CCN(C(=O)CCN3CCN(c4ccc(OC)c(OC)c4)CC3)CC2)ccc1[N+](=O)[O-]` [Example 495], the minimal effective concentration is less than 1 µM.

Consider `CCOc1cc(OC2CCN(C(=O)CCN3CCN(c4ccc(C(C)(C)C)cc4)CC3)CC2)ccc1[N+](=O)[O-]` [Example 502], for which the minimal effective concentration was less than 1 µM. As for `CCOc1cc(OC2CCN(C(=O)CCN3CCC(c4ccc(C(C)(C)C)cc4)CC3)CC2)ccc1[N+](=O)[O-]` [Example 509], the minimal effective concentration was less than 1 µM.

For the compound `COc1ccc(N2CCN(CCC(=O)N3CCC(Oc4ccc([N+](=O)[O-])c(OCC(C)C)c4)CC3)CC2)cc1` [Example 516], the minimal effective concentration is less than 1 µM.

Consider `CC(C)(C)c1ccc(N2CCN(CCC(=O)N3CCC(Nc4ccc([N+](=O)[O-])nc4)CC3)CC2)cc1` [Example 550], for which the minimal effective concentration is less than 1 µM. `CC(C)(C)c1ccc(N2CCN(CCC(=O)N3CCC(Nc4ccc([N+](=O)[O-])cn4)CC3)CC2)cc1` [Example 551]: the minimal effective concentration is less than 1 µM. On to `O=C(CCN1CCN(c2cccc(Cl)c2)CC1)NC1CCN(c2ccc([N+](=O)[O-])c(C(F)(F)F)c2)CC1` [Example 594], for which the minimal effective concentration was less than 1 µM. Turning to `O=C(CCN1CCN(c2ccc(C(F)(F)F)cc2)CC1)NC1CCN(c2ccc([N+](=O)[O-])c(C(F)(F)F)c2)CC1` [Example 596], the minimal effective concentration was less than 1 µM. Still for that read-out and setting: the result for `N#Cc1ccc(N2CCC(NC(=O)CCN3CCN(c4cccc(Cl)c4)CC3)CC2)cc1C(F)(F)F` [Example 609] reads less than 1 µM; that for `O=C(CCN1CCN(c2cccc(Cl)c2)CC1)NC1CCN(c2ccc(C(F)(F)F)cn2)CC1` [Example 640], less than 1 µM. The same measure, in the same setting: the result for `O=C(CCCN1CCN(c2cccc(Cl)c2)CC1)NC1CCN(c2ccc(C(F)(F)F)cn2)CC1` [Example 648] reads less than 1 µM.

On to `CCOc1ccc(N2CCC(OCC(=S)N3CCC(Nc4ccc([N+](=O)[O-])c(C(F)(F)F)c4)CC3)CC2)cc1` [Example 694], for which the minimal effective concentration was less than 1 µM.

Take `O=[N+]([O-])c1ccc(OC2CCN(C(=S)CCN3CCC(OCc4ccc(C(F)(F)F)cc4)CC3)CC2)cc1C(F)(F)F` [Example 695]: the minimal effective concentration is less than 1 µM. As to `O=[N+]([O-])c1ccc(OC2CCN(C(=S)CCN3CCC(c4ccc(C(F)(F)F)cc4)CC3)CC2)cc1C(F)(F)F` [Example 697], the minimal effective concentration was less than 1 µM.

Staying with this assay, now noted: in vitro; one or more of A. galli L3, O. dentatum L3, L4; threshold 7 μM; read-out: MEC (minimum effective concentration) against one or more of the tested nematodes.
Regarding `O=C(CCN1CCC(c2ccc(-c3ccccc3)cc2)CC1)N1CCC(Oc2ccc([N+](=O)[O-])c(C(F)(F)F)c2)CC1` [Example 442], the minimal effective concentration is less than 7 µM. As for `Cn1nnc(-c2ccc(NC3CCN(C(=O)CCN4CCN(c5ccc(Cl)cc5)CC4)CC3)cc2)n1` [Example 445], the minimal effective concentration is less than 7 µM. For `CC(C)COc1cc(NC2CCN(C(=O)CCN3CCC(c4ccc(C(C)(C)C)cc4)CC3)CC2)ccc1[N+](=O)[O-]` [Example 457], the minimal effective concentration was less than 7 µM. On to `CC(C)COc1cc(NC2CCN(C(=O)CCN3CCN(c4ccc(C(F)(F)F)cc4)CC3)CC2)ccc1[N+](=O)[O-]` [Example 459], for which the minimal effective concentration is less than 7 µM. On the same count and under the same terms, the result for `CC(C)COc1cc(NC2CCN(C(=O)CCN3CCN(c4ccc(F)cc4F)CC3)CC2)ccc1[N+](=O)[O-]` [Example 469] reads less than 7 µM; that for `COc1cc(OC2CCN(C(=O)CCN3CCN(c4ccc(Cl)cc4F)CC3)CC2)ccc1[N+](=O)[O-]` [Example 476], less than 7 µM. Same read-out and setting: the figure for `COc1cc(OC2CCN(C(=O)CCN3CCN(c4ccc(F)cc4F)CC3)CC2)ccc1[N+](=O)[O-]` [Example 477] is less than 7 µM; for `COc1cc(OC2CCN(C(=O)CCN3CCN(c4ccc(C(F)(F)F)cc4)CC3)CC2)ccc1[N+](=O)[O-]` [Example 479] it is less than 7 µM; for `CCOc1cc(OC2CCN(C(=O)CCN3CCN(c4ccc(OC)c(OC)c4)CC3)CC2)ccc1[N+](=O)[O-]` [Example 495] it is less than 7 µM. `CCOc1cc(OC2CCN(C(=O)CCN3CCN(c4ccc(OCc5ccc(C(F)(F)F)cc5)cc4)CC3)CC2)ccc1[N+](=O)[O-]` [Example 497]: the minimal effective concentration is less than 7 µM. Take `CCOc1cc(OC2CCN(C(=O)CCN3CCN(c4ccc(Cl)cc4F)CC3)CC2)ccc1[N+](=O)[O-]` [Example 498]: the minimal effective concentration is less than 7 µM. The same measure, in the same setting: the figure for `CCOc1cc(OC2CCN(C(=O)CCN3CCN(c4ccc(C(C)(C)C)cc4)CC3)CC2)ccc1[N+](=O)[O-]` [Example 502] is less than 7 µM; for `CC(C)COc1cc(OC2CCN(C(=O)CCN3CCN(c4ccc(Cl)cc4)CC3)CC2)ccc1[N+](=O)[O-]` [Example 512] it is less than 7 µM; for `COc1ccc(N2CCN(CCC(=O)N3CCC(Oc4ccc([N+](=O)[O-])c(OCC(C)C)c4)CC3)CC2)cc1OC` [Example 515] it is less than 7 µM. On the same count and under the same terms, the figure for `COc1ccc(N2CCN(CCC(=O)N3CCC(Oc4ccc([N+](=O)[O-])c(OCC(C)C)c4)CC3)CC2)cc1` [Example 516] is less than 7 µM; for `CC(C)COc1cc(OC2CCN(C(=O)CCN3CCN(c4ccc(Cl)cc4F)CC3)CC2)ccc1[N+](=O)[O-]` [Example 519] it is less than 7 µM. On to `CC(C)COc1cc(OC2CCN(C(=O)CCN3CCN(c4ccc(F)cc4F)CC3)CC2)ccc1[N+](=O)[O-]` [Example 520], for which the minimal effective concentration was less than 7 µM.

The assay is the same for the next values; noted with them: in vitro; two or more of A. galli L3, O. dentatum L3, L4; threshold 1 μM; read-out: MEC (minimum effective concentration) against two or more of the tested nematodes.
For the compound `COc1ccc(C2CCN(CCC(=O)N3CCC(Oc4ccc([N+](=O)[O-])c(C(F)(F)F)c4)CC3)CC2)cc1` [Example 435], the minimal effective concentration was less than 1 µM. Turning to `O=C(CCN1CCC(c2ccc(F)c(F)c2)CC1)N1CCC(Oc2ccc([N+](=O)[O-])c(C(F)(F)F)c2)CC1` [Example 436], the minimal effective concentration is less than 1 µM. On to `O=C(CCN1CCC(c2ccc(C(F)(F)F)cc2)CC1)N1CCC(Oc2ccc([N+](=O)[O-])c(C(F)(F)F)c2)CC1` [Example 438], for which the minimal effective concentration is less than 1 µM. In the case of `Cn1nnc(-c2ccc(NC3CCN(C(=O)CCN4CCN(c5ccc(Cl)cc5)CC4)CC3)cc2)n1` [Example 445], the minimal effective concentration was less than 1 µM. Regarding `CCOc1cc(OC2CCN(C(=O)CCN3CCN(c4ccc(OC)c(OC)c4)CC3)CC2)ccc1[N+](=O)[O-]` [Example 495], the minimal effective concentration was less than 1 µM.

Turning to `CC(C)(C)c1ccc(N2CCN(CCC(=O)N3CCC(Nc4ccc([N+](=O)[O-])cn4)CC3)CC2)cc1` [Example 551], the minimal effective concentration is less than 1 µM.

In the case of `O=C(CCCN1CCN(c2ccc(Cl)cc2)CC1)N1CCC(Nc2ccc([N+](=O)[O-])cn2)CC1` [Example 559], the minimal effective concentration was less than 1 µM.

For `Cc1cc(NC2CCN(C(=O)CCN3CCN(C(=O)c4cccc(C(F)(F)F)c4)CC3)CC2)ccc1[N+](=O)[O-]` [Example 561], the minimal effective concentration was less than 1 µM. Take `CCOc1cc(OC2CCN(C(=O)CCN3CCN(c4ccc(-c5ccccc5)cc4)CC3)CC2)ccc1[N+](=O)[O-]` [Example 578]: the minimal effective concentration was less than 1 µM. In the case of `CC(C)(CN1CCN(c2ccc(C(F)(F)F)cc2)CC1)C(=O)N1CCC(Nc2ccc([N+](=O)[O-])c(C(F)(F)F)c2)CC1` [Example 585], the minimal effective concentration is less than 1 µM. Same read-out and setting: the figure for `CC(N1CCN(c2ccc(Cl)cc2)CC1)C(C)(C)C(=O)N1CCC(Nc2ccc([N+](=O)[O-])c(C(F)(F)F)c2)CC1` (centres unmarked) [Example 586] is less than 1 µM; for `CC(C)(C)c1ccc(N2CCN(CCCC(=O)N3CCC(Nc4ccnc(C(F)(F)F)c4)CC3)CC2)cc1` [Example 591] it is less than 1 µM. On the same count and under the same terms, the result for `N#Cc1ccc(N2CCC(NC(=O)CCCN3CCN(c4cccc(Cl)c4)CC3)CC2)cc1C(F)(F)F` [Example 617] reads less than 1 µM; that for `N#Cc1ccc(N2CCC(NC(=S)CCCN3CCN(c4ccc(C(F)(F)F)cc4)CC3)CC2)cc1C(F)(F)F` [Example 662], less than 1 µM.

As for `O=[N+]([O-])c1ccc(NC2CCN(C(=S)CCN3CCN(C(=S)c4ccc(C(F)(F)F)cc4)CC3)CC2)cc1C(F)(F)F` [Example 667], the minimal effective concentration was less than 1 µM.

Take `CC(CN1CCN(c2ccc(Cl)cc2)CC1)C(=S)N1CCC(Nc2ccc(C#N)c(C(F)(F)F)c2)CC1` (centres unmarked) [Example 668]: the minimal effective concentration is less than 1 µM.

As to `COc1cc(NC2CCN(C(=S)CCN3CCN(c4ccc(OCc5ccccc5)cc4)CC3)CC2)ccc1[N+](=O)[O-]` [Example 675], the minimal effective concentration is less than 1 µM. As to `CN(CC1CCN(c2ccc(Cl)cc2)CC1)C(=S)N1CCC(Nc2ccc([N+](=O)[O-])c(C(F)(F)F)c2)CC1` [Example 676], the minimal effective concentration is less than 1 µM. On to `O=[N+]([O-])c1ccc(NC2CCN(C(=S)CCN3CCN(c4ccc(OCc5ccccc5)cc4)CC3)CC2)cc1C(F)(F)F` [Example 678], for which the minimal effective concentration is less than 1 µM.

As for `O=[N+]([O-])c1ccc(OC2CCN(C(=S)CCN3CCC(OCc4ccc(C(F)(F)F)cc4)CC3)CC2)cc1C(F)(F)F` [Example 695], the minimal effective concentration is less than 1 µM. Take `O=[N+]([O-])c1ccc(OC2CCN(C(=S)CCN3CCC(c4ccc(C(F)(F)F)cc4)CC3)CC2)cc1C(F)(F)F` [Example 697]: the minimal effective concentration is less than 1 µM. As to `CN(C)S(=O)(=O)c1ccc(NC2CCN(C(=S)CCCN3CCN(c4ccc(C(F)(F)F)cc4)CC3)CC2)cc1C(F)(F)F` [Example 699], the minimal effective concentration was less than 1 µM.

The same assay, now with this note: read-out: MEC (minimum effective concentration) against one or more of the tested nematodes, in vitro; one or more of A. galli L3, O. dentatum L3, L4; threshold 1 μM.
For `N#Cc1ccc(N2CCC(NC(=O)CCN3CCN(c4ccc(C(F)(F)F)cc4)CC3)CC2)cc1C(F)(F)F` [Example 611], the minimal effective concentration is less than 1 µM.

The same assay, now with this note: read-out: MEC (minimum effective concentration) against two or more of the tested nematodes, in vitro; two or more of A. galli L3, O. dentatum L3, L4; threshold 1 μM.
For the compound `CC(C(=O)N1CCC(Nc2ccc([N+](=O)[O-])c(C(F)(F)F)c2)CC1)C(C)N1CCN(c2ccc(C(C)(C)C)cc2)CC1` (centres unmarked) [Example 588], the minimal effective concentration was less than 1 µM. Still for that read-out and setting: the figure for `N#Cc1ccc(N2CCC(NC(=O)CCCN3CCN(c4ccc(C(F)(F)F)cc4)CC3)CC2)cc1C(F)(F)F` [Example 619] is less than 1 µM. As for `CC(CN1CCN(c2ccc(C(F)(F)F)cc2)CC1)C(=O)N1CCC(Nc2ccc(SC(F)(F)F)cc2)CC1` (centres unmarked) [Example 661], the minimal effective concentration is less than 1 µM.
